≈ marks a conversion by molar mass, not a printed value.
Key:
[1] = Cytotoxicity against human C8166 cells after 3 days by MTT assay; format: cell-based
[2] = tested on: Human immunodeficiency virus 1; assay: Antiviral activity against HIV1 3B infected in C8166 cells assessed as inhibition of syncytia formation; format: functional, organism-based; conditions: Human immunodeficiency virus 1, 3B
[3] = Therapeutic index, ratio of CC50 for human C8166 to EC50 for HIV1 3B

| SMILES | EC50 [2] [µg/mL] | CC50 at 72 h [1] [µg/mL] | selectivity ratio [3] | selectivity ratio ([3]; C8166 cells) |
| --- | --- | --- | --- | --- |
| CC(=O)c1cn(S(=O)(=O)c2ccccc2)c2ccc([N+](=O)[O-])cc12 | 45.8 (≈ 133 µM) | > 200 |  | > 4.36 |
| CC(=O)c1cn(S(=O)(=O)c2ccc(C)cc2)c2ccc([N+](=O)[O-])cc12 | > 200 | > 200 |  |  |
| O=[N+]([O-])c1cccc(S(=O)(=O)n2ccc3ccccc32)c1 | 0.74 (≈ 2.45 µM) | > 200 |  | > 270 |
| CC(=O)c1cn(S(=O)(=O)c2cccc([N+](=O)[O-])c2)c2ccccc12 | 2.12 (≈ 6.16 µM) | 164 (≈ 477 µM) |  | 77.4 |
| CC(=O)c1cn(S(=O)(=O)c2ccc(Cl)c([N+](=O)[O-])c2)c2ccccc12 | 3.43 (≈ 9.06 µM) | 3.21 (≈ 8.47 µM) |  | 0.94 |
| O=S(=O)(c1ccc(Br)cc1)n1ccc2ccccc21 | 20.4 (≈ 60.7 µM) | > 200 |  | > 9.79 |
| N#Cc1ccc2c(ccn2S(=O)(=O)c2ccccc2)c1 | 3.23 (≈ 11.4 µM) | > 200 |  | > 61.9 |
| CC(=O)c1cn(S(=O)(=O)c2cccc([N+](=O)[O-])c2)c2cc(C)ccc12 | 1.02 (≈ 2.85 µM) | 125 (≈ 349 µM) |  | 122 |
| O=S(=O)(c1ccccc1)n1ccc2ccccc21 | 0.93 (≈ 3.61 µM) | 47.1 (≈ 183 µM) |  | 50.7 |
| Cc1cn([C@H]2C[C@H](N=[N+]=[N-])[C@@H](CO)O2)c(=O)[nH]c1=O [ZIDOVUDINE] | 0.00324 (≈ 0.0121 µM) | 1140 (≈ 4260 µM) | 353000 |  |

Continued, in another order:

| EC50 [2] [µg/mL] | SMILES | CC50 at 72 h [1] [µg/mL] | selectivity ratio [3] | selectivity ratio ([3]; C8166 cells) |
| --- | --- | --- | --- | --- |
| 30.5 (≈ 86.5 µM) | CCc1ccc(S(=O)(=O)n2cc(C(C)=O)c3cc(C#N)ccc32)cc1 | 113 (≈ 320 µM) | 3.7 |  |
| 54.5 (≈ 129 µM) | CC(=O)c1cn(S(=O)(=O)c2ccc(Br)cc2)c2ccc([N+](=O)[O-])cc12 | 70.4 (≈ 166 µM) |  | 1.29 |
| 76.9 (≈ 227 µM) | CC(=O)c1cn(S(=O)(=O)c2ccc(C)cc2)c2ccc(C#N)cc12 | 147 (≈ 435 µM) |  | 1.91 |
| > 200 | CC(=O)c1cn(S(=O)(=O)c2ccc(Br)cc2)c2ccc(C#N)cc12 | > 200 |  |  |
| 57.5 (≈ 177 µM) | CC(=O)c1cn(S(=O)(=O)c2ccccc2)c2ccc(C#N)cc12 | 66.2 (≈ 204 µM) |  | 1.21 |
| 54.4 (≈ 152 µM) | CC(=O)c1cn(S(=O)(=O)c2ccc(Cl)cc2)c2ccc(C#N)cc12 | 65.2 (≈ 182 µM) |  | 1.19 |

From ChEMBL document CHEMBL1158612, “Anti HIV-1 agents 5: synthesis and anti-HIV-1 activity of some N-arylsulfonyl-3-acetylindoles in vitro” (Bioorg Med Chem Lett, 2010)
